# In the NIST ThermoML archive (doi:10.1021/je7004402):
# ± gives the expanded uncertainty stated by the source.
# Test: refractive index (Na D-line) (dimensionless)
# Conditions: 298.15 K; 101.33 kPa; Liquid; Standard Abbe refractometry
row,Structure (SMILES),refractive index
1,CCOC=O [ethyl methanoate],1.35901 ± 0.00063
2,C=COC(C)=O [vinyl acetate],1.39236 ± 0.00053
3,CC(C)c1ccccc1 [isopropylbenzene],1.48829 ± 0.00053

# Test: not given
# Conditions: Liquid; Ebulliometric method (Recirculating still)
row,Structure (SMILES),Normal boiling temperature
1,CCOC=O [ethyl methanoate],54.17 ± 0.2 °C
2,C=COC(C)=O [vinyl acetate],72.80 ± 0.2 °C
3,CC(C)c1ccccc1 [isopropylbenzene],152.29 ± 0.2 °C
